Non-standard residues stand in square brackets, D forms with d. Residues, ends and D or L forms follow the SMILES beside them. No end group written: not given here. Dmt = Cc1cc(O)cc(C)c1C[C@H](N)C(=O)O
Columns and labels:
mu-opioid receptor = mu-opioid receptor (Homo sapiens, UniProt P35372); details: stated in the description, no test described; cited from earlier work
[1] = test system: several mammalian cell types; details: energy-independent manner (Zhao, et al., 2003); cited from earlier work
[2] = test system: Col4a3 null mice (Alport mice); assay: Survival of Col4a3 null mice (Alport Syndrome mouse model); format: in vivo; details: 1 mg/kg or 5 mg/kg once daily subcutaneous
Excerpt: Six animals from experimental groups (1)-(4) were sacrificed for tissue collection at week 15. One kidney from each animal was harvested for protein/RNA analysis and the second kidney was collected for paraffin sections for analysis via microscopy. Survival data was collected for the remaining 10 animals in groups (1)-(4).

[3] = Col4a3 null mice, daily 5 mg/kg, 15 weeks of age, 30 minutes after the last injection; compared with 5 mg/kg at 6 weeks and 1 mg/kg at 15 weeks
Protocol: Homozygous male Col4a3 null mice and wild-type litter mates were used in this study. Subjects were divided into the following groups: • (1) Healthy wild-type controls • (2) Col4a3 null mice treated with water • (3) Col4a3 null mice treated with 1 mg/kg D-Arg-2′6′-Dmt-Lys-Phe-NH2 • (4) Col4a3 null mice treated with 5 mg/kg D-Arg-2′6′-Dmt-Lys-Phe-NH2 • (5) Col4a3 null mice treated with 5 mg/kg D-Arg-2′6′-Dmt-Lys-Phe-NH2 (Pharmacokinetics group)
Groups (1)-(4) consisted of 16 mice, out of which 10 were used for survival rate studies and 6 for pathology and RNA/protein analysis. Group (5) consisted of 6 mice, 3 of which were sacrificed at 30 minutes after the 7th injection (age, 6 weeks), and 3 at 24 hours after the 7th injection (age, 6 weeks).

Chain of mu-opioid receptor (P35372 whole entry, species assumed): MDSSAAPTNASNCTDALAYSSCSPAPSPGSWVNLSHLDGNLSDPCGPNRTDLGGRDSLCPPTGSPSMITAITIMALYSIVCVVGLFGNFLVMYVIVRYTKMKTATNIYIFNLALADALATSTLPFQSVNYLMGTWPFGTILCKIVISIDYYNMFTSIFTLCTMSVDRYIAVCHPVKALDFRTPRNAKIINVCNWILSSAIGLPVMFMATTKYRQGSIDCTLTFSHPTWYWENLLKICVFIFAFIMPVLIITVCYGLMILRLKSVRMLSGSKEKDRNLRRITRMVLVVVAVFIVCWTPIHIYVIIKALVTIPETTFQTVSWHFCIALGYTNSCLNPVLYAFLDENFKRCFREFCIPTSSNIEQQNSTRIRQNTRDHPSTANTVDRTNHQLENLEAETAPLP

Tyr-D-Arg-Phe-Lys-NH2
mu-opioid receptor agonist activity (mu-opioid receptor): has mu-opioid receptor agonist activity

2′,6′-Dmt-D-Arg-Phe-Lys-NH2
penetration of the plasma membrane [1]: readily penetrates the plasma membrane

Cc1cc(O)cc(C)c1C[C@H](NC(=O)[C@H](N)CCCNC(=N)N)C(=O)N[C@@H](CCCCN)C(=O)N[C@@H](Cc1ccccc1)C(N)=O [D-Arg-2′,6′-Dmt-Lys-Phe-NH2] (H-[dR][Dmt]KF-NH2)
harm of peptide administration [2]: not harmful | plasma levels [3]: highest

F[dR]FK-NH2
mu-opioid receptor agonist activity (mu-opioid receptor): does not have mu-opioid receptor agonist activity
